# Reference: the OPERA property sets (Mansouri et al. 2018)
# Conditions: not given
Structure (SMILES),boiling point,log10 vapour pressure (mmHg),melting point,ready biodegradability,log10 Koc (L/kg),log10 Koa,log10 Henry constant (atm·m³/mol),log10 biodegradation half-life (days)
CC1(O)CCCCC1,155 °C,0.0531,25 °C,,,,,
CC/C=C/CCCCC,148 °C,,,,,,,
FC(Cl)Cl,8.9 °C,3.13,-135 °C,,,,,
Cc1ccc(N)nc1,227 °C,,76.5 °C,,,,,
c1ccc2[nH]ccc2c1,254 °C,-1.91,52.5 °C,readily biodegradable,,,,
Cc1ccc2c(C)c(C)ccc2c1,,,14 °C,,,,,
COc1ccc(CC(C)(C)C)cc1,238 °C,,,,,,,
O=C1c2ccccc2C(=O)c2c(Br)cccc21,,,186 °C,,,,,
Cc1ccc(NC(=O)c2ccccc2)cc1,,,158 °C,,,,,
CCCCCCCCCCCC(=O)CC,,,34 °C,,,,,
CCOCCOCC,119 °C,1.53,-74 °C,,,,,
CC(C)(C)CC(C)(C)S,160 °C,0.716,-74 °C,,,,,
O=C(O)Cc1ccccc1,266 °C,-2.42,76.5 °C,readily biodegradable,1.45,,,
CC(C)CC(C)Cl (centres undefined),113 °C,,,,,,,
O=CC12CC=CCC1C1CC=CCC1O2 (centres undefined),307 °C,,-80 °C,,,,,
Cc1cccc(C)c1OCC(C)N (centres undefined),,,204 °C,,,,,
Fc1cc(F)c(F)c(-c2c(F)c(F)cc(F)c2F)c1F,,,85 °C,,,,,
COC(=O)/C=C(\C)OP(=O)(OC)OC,,-3.91,21 °C,,,,,
O=Cc1ccc2ccccc2c1,,,62 °C,,,,,
CC(Cl)(Cl)[N+](=O)[O-],124 °C,1.23,,,,,,
Cc1nc2ccccc2c(=O)n1-c1ccccc1Cl,,,127 °C,,,,,
Clc1ccc(Cl)nn1,,,67.5 °C,,,,,
c1ccc2sc(SN(C3CCCCC3)C3CCCCC3)nc2c1,,,99.8 °C,not readily biodegradable,,,,
c1ccc2nc(-c3ccc4ccccc4n3)ccc2c1,,,194 °C,,4.02,,,
C1CCCCCCC1,149 °C,0.741,14.8 °C,,,,,
CCO/N=C(\OC(=O)c1ccccc1)c1c(OC)ccc(Cl)c1OC,,,73 °C,,,,,

Structure (SMILES),boiling point,log10 vapour pressure (mmHg),melting point,ready biodegradability,log10 Koc (L/kg),log10 Koa,log10 Henry constant (atm·m³/mol),log10 biodegradation half-life (days)
C=C[C@H](C)O,96.5 °C,,,,,,,
CC(C)CCN,96 °C,,,,,,,
c1ccc2nnccc2c1,,,38 °C,,,,,
c1coc(CNc2[nH]cnc3ncnc2-3)c1,,,266 °C,,,,,
CCOP(=O)(NC(C)C)Oc1ccc(S(C)(=O)=O)c(C)c1 (centres undefined),,,,,1.64,,,
O=S(=O)(Cl)c1ccc(I)cc1,,,85 °C,,,,,
CC(C)C(=NO)C(C)C,181 °C,,34 °C,,,,,
CCC1CCCO1 (centres undefined),109 °C,,,,,,,
COP(=S)(Oc1cc(Cl)c(Br)cc1Cl)c1ccccc1 (centres undefined),,-7.64,70.4 °C,,4.5,,,
CC(=O)Nc1ccccc1F,,,78 °C,,,,,
c1c2c(cc3c1CCCC3)CCCC2,294 °C,,78 °C,,,,,
c1ccc(-c2c3ccccc3nc3ccccc23)cc1,404 °C,,184 °C,,,,,
Clc1cc2c(c(Cl)c1Cl)Oc1c(Cl)c(Cl)c(Cl)c(Cl)c1O2,,-10.2,264 °C,,,11.4,,
CC12CCC(CC1)C(C)(C)O2,176 °C,0.279,1.5 °C,,,,,
N#Cc1nccnc1C#N,,,132 °C,,,,,
Cc1nc2cc(-c3ccccc3)ccc2o1,,,63 °C,,,,,
FC(F)(F)CCl,6.1 °C,,-106 °C,,,,,
CCC(C)CCc1ccccc1 (centres undefined),220 °C,,,,,,,
C1CCC2C(C1)CCC1C3CCCCC3CCC21 (centres undefined),353 °C,,115 °C,,,,,
Ic1ccc(I)cc1,285 °C,,132 °C,,,,,
CCc1ccccc1Br,199 °C,,-67.9 °C,,,,,
FC(F)=C(F)F,-75.9 °C,4.39,-142 °C,,,,,
CNC(=C[N+](=O)[O-])NCCSCc1ccc(CN(C)C)o1,,,69.5 °C,,,,,
CCC(=O)C1CCCCC1,196 °C,,,,,,,
CCCC(=O)C(C)C,135 °C,,,,,,,
Cc1nc2ccccc2nc1C,,,105 °C,,,,,

Structure (SMILES),boiling point,log10 vapour pressure (mmHg),melting point,ready biodegradability,log10 Koc (L/kg),log10 Koa,log10 Henry constant (atm·m³/mol),log10 biodegradation half-life (days)
O=C(Nc1ccc(F)cc1F)c1cccnc1Oc1cccc(C(F)(F)F)c1,,-7.5,160 °C,,,,-6.49,
CCCNc1c([N+](=O)[O-])cc(C(F)(F)F)cc1[N+](=O)[O-],,,,,3.61,,,
CCCCCS,127 °C,1.14,-75.7 °C,,,,,
C=CC(F)(F)C(F)(F)C(F)(F)C(F)(F)C(F)(F)C(F)(F)C(F)(F)C(F)(F)F,150 °C,,,,,,,
CCCCCCCCCCCCCCCC(CCCC)c1ccccc1 (centres undefined),,,30.2 °C,,,,,
O=C(O)CCCCCCCCCCCCC(=O)O,,,127 °C,readily biodegradable,,,,
CCCOC(=O)c1ccccc1C(=O)OCCC,318 °C,-3.88,,,,,,
CC1(C)[C@H](C(=O)O)CC[C@]1(C)C(=O)O,,,189 °C,,,,,
CC(C)(C)c1ccc(C(O)CCCN2CCC(C(O)(c3ccccc3)c3ccccc3)CC2)cc1 (centres undefined),,,147 °C,,,,,
Cc1ccc2ccc(C)nc2c1,264 °C,,61 °C,,,,,
OCCN1CCN(CCCN2c3ccccc3Sc3ccc(Cl)cc32)CC1,,,97 °C,,,,,
C[SiH](Cl)Cl,41 °C,2.63,-93 °C,,,,,
CCCCCCCCCCC(C)C(=O)O (centres undefined),,,22 °C,,,,,
CCC(N)=O,213 °C,-1.42,81.3 °C,,,,,
COC(=O)C(C)C,92.5 °C,1.69,-84.7 °C,,,,,
Cc1cccc2sc3nncn3c12,275 °C,-6.7,187 °C,,3.09,,,
CCCCCCCCCCCc1ccccc1,316 °C,-3.62,-5 °C,,,,,
OCCN(CCO)c1ccccc1,,,57 °C,,,,,
CCc1ccc(O)cc1,218 °C,-1.43,45 °C,readily biodegradable,,,-6.11,
COC(=O)c1ccoc1,160 °C,,,,,,,
C=CC(=O)OCC(F)(F)C(F)F,132 °C,,,,,,,
C=C=C,-34.4 °C,3.73,-136 °C,,,,,
COC(=O)NN,,,73 °C,,,,,
N#Cc1ccccc1[N+](=O)[O-],,,108 °C,,,,,
c1ccc2c(c1)CCNC2,232 °C,,,,,,,
OB(O)c1ccc(Cl)cc1,,,286 °C,,,,,

Structure (SMILES),boiling point,log10 vapour pressure (mmHg),melting point,ready biodegradability,log10 Koc (L/kg),log10 Koa,log10 Henry constant (atm·m³/mol),log10 biodegradation half-life (days)
CCC(=O)O[C@]1(C(=O)CCl)[C@@H](C)C[C@H]2[C@@H]3CCC4=CC(=O)C=C[C@]4(C)[C@@]3(F)[C@@H](O)C[C@@]21C,,,196 °C,,,,,
CCn1cc(C(=O)O)c(=O)c2ccc(C)nc21,,,230 °C,,,,,
CN(CCCC(=O)c1cccnc1)N=O,,,64 °C,,,,,
Cc1cc(N(C)C)nc(Cl)n1,,,87 °C,,,,,
O[C@@H]1CCCC[C@H]1O,,,102 °C,,,,,
Cc1cc(C)nc(N)n1,,,152 °C,,,,,
C[Si](C)(C)OS(=O)(=O)C(F)(F)F,140 °C,,,,,,,
CC(C)=CCCc1ccoc1,186 °C,,,,,,,
CCCCCCCCCCCCCCCCCCCCCCCC,391 °C,-5.39,54 °C,readily biodegradable,,,,2.06
C=C1C[C@@H]1C[C@H](N)C(=O)O,,,282 °C,,,,,
CCCc1ccc(OC)cc1,212 °C,,,,,,,
C1=CCCC=CCC1,151 °C,0.695,-56.4 °C,,,,,
CC(CO)(CO)C(=O)O,,,190 °C,,,,,
CC(C(O)c1ccccc1)N(C)C/C=C/c1ccccc1 (centres undefined),,,75 °C,,,,,
CNC(=O)Oc1cc(C)c(C)c(C)c1,,-4.29,109 °C,,2.6,,,
CC(C)=CC=C(C)C,134 °C,,14 °C,,,,,
OCCC(O)CO (centres undefined),312 °C,,,,,,,
Oc1ccccc1Cl,175 °C,0.403,9.8 °C,not readily biodegradable,2.6,,-4.95,
CCC1C=CCC1 (centres undefined),97.8 °C,,,,,,,
CCNc1nc(Cl)nc(NCC)n1,,-7.66,226 °C,not readily biodegradable,2.1,,,
CCCCCCCCC(=O)CCCCCCCC,252 °C,,53 °C,,,,,
ClC(Br)Br,120 °C,,-20 °C,not readily biodegradable,1.92,3.59,-3.11,
Oc1ccc2c(c1)Cc1ccccc1-2,,,168 °C,,,,,
O=Cc1cc2c(cc1[N+](=O)[O-])OCO2,,,93.5 °C,,,,,

# Same assay, conditions: fish
Structure (SMILES),log10 BCF,log10 biotransformation half-life (days)
COP(=S)(Oc1cc(Cl)c(Br)cc1Cl)c1ccccc1 (centres undefined),3.78,1.26
Clc1cc2c(c(Cl)c1Cl)Oc1c(Cl)c(Cl)c(Cl)c(Cl)c1O2,3.67,1.21
ClC1C(Cl)C(Cl)C(Cl)C(Cl)C1Cl (centres undefined),,1.49
CC(C)=CC=C(C)C,2.32,0.49
Oc1ccccc1Cl,1.35,-0.38
CCNc1nc(Cl)nc(NCC)n1,0.56,-0.94
Clc1ccc2c(c1)oc1c(Cl)cccc12,,0.58
